Laboratory results from patent US7423008B2, “Derivatives of mithramycin and methods of making and uses thereof” (University of Kentucky Research Foundation, priority 2004, dated 2008).

What was measured:
Melanoma cell lines = assay: Sulforhodamine B assay, 60 cell line panel: melanoma; assay type: cell-based, human; details: for GI50: Homo sapiens, 60 cell, 8 cell lines, read-out: Average Log(GI50) (converted); for AIF (activity improvement factor, 10^Δ1−x): versus 1
Description: (§1) The cytotoxicity of Mithramycin-SK and demycarosyl-mithramycin-SK were assessed in a panel of 60 cell lines using a sulforhodamine B assay. It is active against a variety of tumor cell lines in the concentration range of 10^−5 to 10^−8 molar. Cell lines were inoculated into a series of 96-well microliter plates with varying seeding densities depending on the growth characteristics of the particular cell lines. Following a 24 hour drug-free incubation, mithramycin-SK was added routinely at five 10-fold dilutions with maximum concentration of […]. After 48 hours of drug exposure, the change in protein stain optical density allowed the inhibition of cell growth to be analyzed.

Colon cancer cell lines = assay: Sulforhodamine B assay, 60 cell line panel: colon; assay type: cell-based, human; details: for GI50: Homo sapiens, 60 cell, 7 cell lines, read-out: Average Log(GI50) (converted); for AIF (activity improvement factor, 10^Δ1−x): versus 1
Description: as §1

Renal cancer cell lines = assay: Sulforhodamine B assay, 60 cell line panel: renal; assay type: cell-based, human; details: for GI50: Homo sapiens, 60 cell, 8 cell lines, read-out: Average Log(GI50) (converted); for AIF (activity improvement factor, 10^Δ1−x): versus 1
Description: as §1

[1] = system: Ovarian cancer cell lines; assay: Sulforhodamine B assay, 60 cell line panel: ovarian; assay type: cell-based, human; details: for GI50: Homo sapiens, 60 cell, 6 cell lines, read-out: Average Log(GI50) (converted); for AIF (activity improvement factor, 10^Δ1−x): versus 1
Description: as §1

Breast cancer cell lines = assay: Sulforhodamine B assay, 60 cell line panel: breast; assay type: cell-based, human; details: for GI50: Homo sapiens, 60 cell, 8 cell lines, read-out: Average Log(GI50) (converted); for AIF (activity improvement factor, 10^Δ1−x): versus 1
Description: as §1

Leukemia cell lines = assay: Sulforhodamine B assay, 60 cell line panel: leukemia; assay type: cell-based, human; details: for GI50: Homo sapiens, 60 cell, 5 cell lines, read-out: Average Log(GI50) (converted); for AIF (activity improvement factor, 10^Δ1−x): versus 1
Description: as §1

Breast (MCF-7) = assay: Proliferation inhibition assay (sulforhodamin B uptake), breast cells; assay type: cell-based; details: concentration 1 × 10^−5 molar
Description: (§2) The experiment was performed by Biotecon, Berlin. It measures the uptake of sulforhodamin B (SRB), which is dependent on the cellular protein quantities, and can be performed in 96-well microtiter plates according to the protocol published by Boyd et al. (NCI). The SRB assay is a rapid and sensitive method to measure drug-induced cytotoxicity. Briefly, cells will be incubated with and without drug for 72 hours (drugs will be added after 24 hours), fixed with TCA (trichloroacetic acid), and stained for 30 minutes using a 0.4% (w/v) SRB solution in […]. Cultures will then be rinsed with 1% acetic acid, residual wash solution will be removed and air-dried. Bound dye will be solubilized with 10 mM unbuffered Tris base (pH 10.5) for 5 min., and the optical density (OD) will be measured with amicrotiter plate reader at 564 nm. (Skehan, P. et al., “New calorimetric cytotoxicity assay for anticancer-drug screening,” Journal of the National Cancer Institute, 1990. 82(13): p. 1107-1112).

Lung (NCI-H460) = assay: Proliferation inhibition assay (sulforhodamin B uptake), lung cells; assay type: cell-based
Description: as §2

CNS cancer cells = assay: Sulforhodamine B assay, 60 cell line panel: CNS; assay type: cell-based, human; details: for GI50: Homo sapiens, 60 cell, 5 cell lines, read-out: Average Log(GI50) (converted); for AIF (activity improvement factor, 10^Δ1−x): versus 1
Description: as §1

CNS (SF-268) = assay: Proliferation inhibition assay (sulforhodamin B uptake), CNS cells; assay type: cell-based
Description: as §2

NSCLC cell lines = assay: Sulforhodamine B assay, 60 cell line panel: NSCLC; assay type: cell-based, human; details: for GI50: Homo sapiens, 60 cell, 8 cell lines, read-out: Average Log(GI50) (converted); for AIF (activity improvement factor, 10^Δ1−x): versus 1
Description: as §1

[2] = system: Prostrate cancer cell lines; assay: Sulforhodamine B assay, 60 cell line panel: prostate; assay type: cell-based, human; details: for GI50: Homo sapiens, 60 cell, 2 cell lines, read-out: Average Log(GI50) (converted); for AIF (activity improvement factor, 10^Δ1−x): versus 1
Description: as §1

Breast carcinoma = assay: Neutral red assay, breast carcinoma; assay type: cell-based; details: for GI50: read-out: Average Log(GI50) (converted)
Source text: (§3) Mithramycin-SK was particularly active against melanoma, leukemia, and CNS cancer cells (log(GI50) values of −7.64, −7.59, and −7.61, respectively).

[3] = system: non-tumorous mouse fibroblast cells (NIH 3T3); assay: Neutral red toxicity assay on non-tumorous fibroblasts; assay type: cell-based; details: for IC50: NIH3T3, neutral red
Description: Mithramycin-SK and demycarosyl-mithramycin-SK were also tested in a neutral red toxicity assay. In this experiment, non-tumorous mouse fibroblast cells were used (NIH 3T3).
as §3

Squamous carcinoma = assay: Neutral red assay, squamous carcinoma; assay type: cell-based; details: for GI50: read-out: Average Log(GI50) (converted)
Source text: as §3

Lung carcinoma = assay: Neutral red assay, lung carcinoma; assay type: cell-based; details: for GI50: read-out: Average Log(GI50) (converted)
Source text: as §3

Melanoma = assay: Neutral red assay, melanoma; assay type: cell-based; details: for GI50: read-out: Average Log(GI50) (converted)
Source text: as §3

[4] = system: 60 human cancer cell lines; assay: Sulforhodamine B cytotoxicity assay, whole panel of 60 cell lines (NCI); assay type: cell-based
Description: The mithramycin SK has antitumor activity substantially higher than that of MTM and is particularly active against melanoma, leukemia and CNS cancer cells.
as §1

[5] = system: squamous, melanoma, lung, and breast carcinomas; assay: Neutral red uptake analysis of carcinomas, overall; assay type: cell-based; details: cells not given
Source text: as §3

[6] = mouse 3T3 fibroblast (nontumor) cells
[7] = concentration 1 × 10^−4.6 molar

| SMILES | GI50 (Melanoma cell lines) [nM] | AIF (activity improvement factor, 10^Δ1−x) (Melanoma cell lines) | GI50 (Colon cancer cell lines) [nM] | AIF (activity improvement factor, 10^Δ1−x) (Colon cancer cell lines) | GI50 (Renal cancer cell lines) [nM] | AIF (activity improvement factor, 10^Δ1−x) (Renal cancer cell lines) | GI50 [1] [nM] | AIF (activity improvement factor, 10^Δ1−x) [1] | GI50 (Breast cancer cell lines) [nM] | AIF (activity improvement factor, 10^Δ1−x) (Breast cancer cell lines) | GI50 (Leukemia cell lines) [nM] | AIF (activity improvement factor, 10^Δ1−x) (Leukemia cell lines) | Percent Growth in 48 Hours, Breast (MCF-7) (Breast (MCF-7)) [%] | Percent Growth in 48 Hours, Lung (NCI-H460) (Lung (NCI-H460); concentration 1 × 10^−5 molar) [%] | GI50 (CNS cancer cells) [nM] | AIF (activity improvement factor, 10^Δ1−x) (CNS cancer cells) | Percent Growth in 48 Hours, CNS (SF-268) (CNS (SF-268); concentration 1 × 10^−5 molar) [%] | GI50 (NSCLC cell lines) [nM] | AIF (activity improvement factor, 10^Δ1−x) (NSCLC cell lines) | GI50 [2] [nM] | other results |
| --- | --- | --- | --- | --- | --- | --- | --- | --- | --- | --- | --- | --- | --- | --- | --- | --- | --- | --- | --- | --- | --- |
| COC(C(O)C(C)=O)[C@@H]1Cc2cc3cc(OC4CC(OC5CC(O)C(O)C(C)O5)C(O)C(C)O4)c(C)c(O)c3c(O)c2C(=O)[C@H]1OC1CC(OC2CC(O)C(O)C(C)O2)C(O)C(C)O1 (stereo partly drawn) [Demycarosyl-Mithramycin-SK, Demycarosyl-mithramycin-SK] | 4270 | 0.04 | 4470 | 0.05 | 7240 | 0.03 | 5890 | 0.04 | 7080 | 0.04 | 2820 | 0.08 | 22 | 5 | 5010 | 0.03 | 47 | 5010 | 0.04 | 5620 | AIF (activity improvement factor, 10^Δ1−x) [2]: 0.02 |
| CO[C@H](C(=O)[C@@H](O)[C@@H](C)O)[C@@H]1Cc2cc3cc(OC4CC(OC5CC(O)C(O)C(C)O5)C(O)C(C)O4)c(C)c(O)c3c(O)c2C(=O)[C@H]1OC1CC(OC2CC(OC3CC(C)(O)C(O)C(C)O3)C(O)C(C)O2)C(O)C(C)O1 (stereo partly drawn) [Mithramycin] | 191 |  | 224 |  | 186 |  | 251 |  | 257 |  | 224 |  | 12 | 12 | 166 |  |  | 186 |  | 126 | GI50 (Breast carcinoma): 11200 nM; IC50 [3, 6]: 3.45 to 12.9 nM; GI50 (Squamous carcinoma): 9120 nM; GI50 (Lung carcinoma): 12000 nM; GI50 (Melanoma): 8910 nM |
| CO[C@@H]1C(=O)C(C(C)=O)=C(O)[C@@]2(O[C@H]3C[C@@H](O)[C@H](O)[C@@H](C)O3)C(=O)c3c(cc4cc(O)cc(O)c4c3O)C[C@@H]12 [Premithramycin A1, reference compound] |  |  |  |  |  |  |  |  |  |  |  |  |  |  |  |  |  |  |  |  | Percent Growth in 48 Hours, Lung (NCI-H460) (Lung (NCI-H460); [7]): 68%; Percent Growth in 48 Hours, CNS (SF-268) (CNS (SF-268); [7]): 93% |
| CO[C@@H]1C(=O)C(C(C)=O)=C(O)[C@@]2(O[C@H]3C[C@@H](O[C@H]4C[C@@H](O[C@H]5C[C@](C)(O)[C@H](O)[C@@H](C)O5)[C@@H](O)[C@@H](C)O4)[C@H](O)[C@@H](C)O3)C(=O)c3c(cc4cc(O[C@H]5C[C@@H](O[C@H]6C[C@@H](O)[C@H](O)[C@@H](C)O6)[C@H](O)[C@@H](C)O5)c(C)c(O)c4c3O)C[C@@H]12 [Premithramycin B, reference compound] |  |  |  |  |  |  |  |  |  |  |  |  | >100 | >100 |  |  | >100 |  |  |  |  |
| COC(C(O)C(C)=O)[C@@H]1Cc2cc3cc(OC4CC(OC5CC(O)C(O)C(C)O5)C(O)C(C)O4)c(C)c(O)c3c(O)c2C(=O)[C@H]1OC1CC(OC2CC(OC3CC(C)(O)C(O)C(C)O3)C(O)C(C)O2)C(O)C(C)O1 (stereo partly drawn) [Mithramycin-SK, mithramycin-SK] | 22.9 | 8.3 | 47.9 | 4.7 | 51.3 | 3.6 | 29.5 | 8.5 | 1290 | 0.2 | 25.7 | 8.7 | 0.2 | 0.1 | 24.5 | 6.8 | 1 | 42.7 | 4.4 | 33.1 | GI50 (Breast carcinoma): 182 nM; AIF (activity improvement factor, 10^Δ1−x) (Breast carcinoma; versus 1): 61.6; toxicity (concentration still without toxicity) ([3]; NIH 3T3, after 24 hours of incubation): > 200 µg/mL; IC50 [3, 6]: 19600 nM; toxicity compared to parent compound MTM ([3]; in vitro toxicity assay): two orders of magnitude lesser toxicity; fold less toxic than MTM ([3]; mouse 3T3 fibroblast (nontumor) cells, ratio of IC50 values): more than 1500 fold; GI50 (Squamous carcinoma): 1020 nM; AIF (activity improvement factor, 10^Δ1−x) (Squamous carcinoma; versus 1): 8.9; activity, times higher than that of MTM ([4]; compilation of the average log(GI50) values): up to 9 times; antitumor activity compared to parent compound MTM ([4]; initial in vitro anticancer assays by the NCI, 60 human cancer cell lines): up to two orders of magnitude better antitumor activity; concentrations revealing antiproliferative activity [5]: < 1 µg/mL; AIF (activity improvement factor, 10^Δ1−x) [2]: 3.8; GI50 (Lung carcinoma): 132 nM; AIF (activity improvement factor, 10^Δ1−x) (Lung carcinoma; versus 1): 91.2; GI50 (Melanoma): 562 nM; AIF (activity improvement factor, 10^Δ1−x) (Melanoma; versus 1): 15.8 |
